In experiment [1] the test system is Diet-induced obese male Long-Evans rats. The experiment in a line: Block of MCH-stimulated food intake after intracerebroventricular injection. The format is in vivo, rat. The conditions noted are these: 82 nmol compound plus 2.1 nmol MCH, ICV; food intake at 2, 4 and 6 hours after injection; n=6 per group; p<0.05 vs. MCH alone; FIG. 1. As to the method: Diet-induced obese male Long-Evans rats (Harlan, Ind.) weighing 500–550 g at time of surgery were anesthetized with isoflurane. Stainless steel cannula guides (5 mm length, 26 gauge, Plastics One, Va.) were stereotaxically implanted in the lateral ventricle anteroposteriority: 0.8 mm caudal to bregma; and lateral: 1.5 mm from midline suture. Animals were individually housed in a temperature regulated room (24° C.) with a reverse 12 hour light/dark cycle (dark 10:00/22:00). Water and food (Teklad 95217, Harlan, Wis.) were available ad libitum. After surgery, animals were allowed to recover 7 days before experimental use. On test day, food was removed 1 hr prior to testing and animals (4 groups, n=6 per group) were injected between 0900 and 1000 with 5 μl of vehicle (artificial CSF), 2.1 nmol MCH, 82 nmol of compound of example 136, and MCH plus compound of example 136. Cumulative food intake was measured at 2, 4 and 6 hours after injection.

Experiment [2] addresses T1, human MCHR1 (Homo sapiens, UniProt Q99705).
T1 construct: The full-length cDNA for human MCHR1 was cloned from a human adult brain cDNA library; expressed in transfected cells; host or cells: AV12 cells previously transfected with Gα15
As to the kind of experiment: 125I-MCH competitive binding assay (SPA) with clone 43 membranes. The conditions noted are these: competition with 125I-MCH, clone 43 membranes (AV12 cells expressing human MCHR1); Ki from IC50 by Cheng-Prusoff; tested in duplicate. An excerpt:
(§1) The full-length cDNA for human MCHR1 was cloned from a human adult brain cDNA library (Edge Biosystems, Cat. 38356) by standard polymerase chain reaction (PCR) methodology employing the following primers: sense, 5′-GCCACCATGGACCT GGAAGCCTCGCTGC-3′; anti-sense, 5′-[…]-3′.
(§2) In order to generate cell lines stably expressing MCHR1, the insert was then subcloned into the Xba I and Not I sites of pcDNA(+)-3.1-neomycin (Invitrogen). After purification by Qiagen Maxi-prep kit (QIAGEN, Inc.), the plasmid was transfected by Fugene 6 (Roche Applied Science) into AV12 cells that had been previously transfected with the promiscuous G protein Gα15. The transfected cells were selected by
(§3) Both the ^125I-MCH binding and functional GTPγ^35S binding assays employed membranes isolated from a clone designated as clone 43. Typically, cells from 20 confluent T225 flasks were processed by washing the monolayers in cold phosphate-buffered saline (PBS), scraping the cells into same and re-suspending the cell pellet in 35 ml of 250 mM Sucrose, 50 mM HEPES, pH 7.5, 1 mM MgCl2, 24 μg/ml DNase I, and protease inhibitors (1 Complete® tablet, per 50 ml of buffer prepared, Roche Diagnostics). After incubation on ice for 5 min, cells were disrupted with 20–25 strokes of a Teflon/Glass homogenizer attached to an overhead motorized stirrer, and the homogenate was centrifuged at 40,000 rpm in Beckman Type 70.1 Ti rotor. The pellets were re-suspended in 250 mM Sucrose, 50 mM HEPES, pH 7.5, 1.5 mM CaCl2, 1 mM MgSO4 and protease inhibitors by Teflon/Glass homogenization to achieve a protein concentration of ˜3–5 mg/ml (Pierce BCA assay with Bovine serum albumin as standard).
Aliquots were stored at −70° C. Binding of compounds to MCHR1 was assessed in a competitive binding assay employing ^125I-MCH, compound and clone 43 membranes. Briefly, assays are carried out in 96-well Costar 3632 white opaque plates in a total volume of 200 μl containing 25 mM HEPES, pH 7.5, 10 mM CaCl2, 2 mg/ml bovine serum albumin, 0.5% dimethyl sulfoxide (DMSO), 4 μg of clone 43 membranes, […] ^125I-MCH (NEN), 1.0 mg of wheat germ agglutinin scintillation proximity assay beads (WGA-SPA beads, Amersham) and a graded dose of test compound. Non-specific binding is assessed in the presence of 1 μM unlabeled MCH. Bound ^125I-MCH is determined by placing sealed plates in a Microbeta Trilux (Wallac) and counting after a 5 hr delay.
IC50 values (defined as the concentration of test compound required to reduce specific binding of ^125I-MCH by 50%) are determined by fitting the concentration-response data to a 4-parameter model (max response, min response, Hill coefficient, IC50) using Excel. Ki values are calculated from IC50 values using the Cheng-Prusoff approximation as described by Cheng et al. (Relationship between the inhibition constant (Ki) and the concentration of inhibitor which causes 50% inhibition (IC50) of an enzymatic reaction, Biochem. Pharmacol., 22: 3099–3108 (1973)). The Kd for ^125I-MCH is determined independently from a saturation binding isotherm.

For experiment [3], the target named is T1, human MCHR1. As to the kind of experiment: Inhibition of MCH-stimulated GTPγ35S binding to clone 43 membranes (functional antagonism). The format is biochemical. The conditions noted are these: inhibition of GTPγ35S binding stimulated by 40 nM MCH (about EC90), Kb from IC50 by modified Cheng-Prusoff (Leff and Dougal), tested in duplicate.
Excerpt: as §1, §2, §3
Functional antagonism of MCH activity is assessed by measuring the ability of test compound to inhibit MCH-stimulated binding of GTPγ^35S to clone 43 membranes. Briefly, assays are carried out in Costar 3632 white opaque plates in a total volume of 200 μl containing 25 mM Hepes, pH 7.5, 5 mM MgCl2, 10 μg/ml saponin, 100 mM NaCl, 3 μM GDP, 0.3 nM GTPγ^35S, 40 nM MCH (approximately equal to EC90), 20 μg of clone 43 membranes, 1.0 mg of wheat germ agglutinin scintillation proximity assay beads (WGA-SPA beads, Amersham) and a graded dose of test compound. The plates are sealed and left for 16–18 hrs at 4° C. After a 1 hr delay to allow plates to equilibrate to ambient temperature, bound GTPγ^35S is determined by counting in a Microbeta Trilux (Wallac).
IC50 values (defined as the concentration of test compound required to reduce MCH-stimulated GTPγ^35S binding by 50%) are determined by fitting the concentration-response data to a 4-parameter model (max response, min response, Hill coefficient, IC50) using Excel. Kb values are calculated from IC50 values using a modification of the Cheng-Prusoff approximation as described by Leff and Dougal (Further concerns over Cheng-Prusoff analysis, Trends Pharmacol. Sci. 14: 110–112 (1993)) after verifying competitive antagonism by Schild analysis. The EC50 for MCH alone is determined independently. The MCHR1 binding and functional activities of 24 compounds in the oxadiazole series (tested in duplicate) are shown in Table 1
A general note: GTPγS is a poorly hydrolysed GTP analogue; its binding reports G protein activation.

pKi: −log10 of the molar value.

T1 sequence (Q99705 whole entry): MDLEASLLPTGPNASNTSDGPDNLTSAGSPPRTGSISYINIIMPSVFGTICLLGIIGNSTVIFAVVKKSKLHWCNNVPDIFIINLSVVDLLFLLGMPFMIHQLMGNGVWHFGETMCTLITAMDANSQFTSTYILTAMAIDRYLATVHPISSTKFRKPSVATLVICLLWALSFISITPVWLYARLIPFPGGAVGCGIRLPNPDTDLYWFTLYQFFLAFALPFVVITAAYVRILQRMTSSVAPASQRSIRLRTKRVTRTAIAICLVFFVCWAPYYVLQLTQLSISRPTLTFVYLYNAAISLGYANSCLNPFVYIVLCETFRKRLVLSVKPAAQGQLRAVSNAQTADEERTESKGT

Take `C(=C\c1ccc(-c2nnc(CSCCOc3ccccc3)o2)cc1)/CN1CCCC1` [Example 136, (E)-2-{[(2-phenoxyethyl)thio]methyl}-5-[4-(3-pyrrolidinopropen-1-yl)phenyl]-1,3,4-oxadiazole]: the “effect on orexigenic effect of exogenous MCH (cumulative food intake)” value in experiment [1] is “completely blocked the orexigenic effect of exogenous MCH”.
On human MCHR1 [2], `c1ccc(OCCSCc2nnc(-c3ccc(OCCCN4CCCC4)cc3)o2)cc1` [drawing 51] showed a pKi of 7.84. For the same molecule, on human MCHR1 [3], the antagonist equilibrium constant (Kb) was 18.1 nM.
On human MCHR1 [2], `CN(C)CCNC(=O)Nc1ccc(-c2nnc(CSCCOc3ccccc3)o2)cc1` showed a negative logarithm of the Ki (pKi) of 7.98. At human MCHR1 [3], this molecule came in with a Kb of 16.2 nM.
The like results for `c1ccc(OCCSCc2nnc(-c3ccc(OCc4cccnc4)cc3)o2)cc1` [drawing 61] were, in that order, 5.54 and 6890 nM.
The like results for `CN(C)CCOc1ccc(-c2nnc(CSCCOc3ccccc3)o2)cc1` [drawing 41] were, in that order, 8.28 and 13.6 nM.
Consider `CC(C)N(CCCOc1ccc(-c2nnc(CSCCOc3ccccc3)o2)cc1)C(C)C` [drawing 60], for which, at human MCHR1 [2], the pKi was 6.85. At human MCHR1 [3], this molecule came in with a Kb of 145 nM.
`c1ccc(OCCSCc2ncc(-c3ccc(OCCCN4CCCC4)cc3)o2)cc1` gave a pKi at human MCHR1 [2] of 7.99. Further, the Kb on human MCHR1 [3] amounted to 16.5 nM.
As to `c1ccc(OCCSCc2nnc(-c3ccc(OCCCCN4CCCCCC4)cc3)o2)cc1` [drawing 57], the pKi at human MCHR1 [2] was 7.42. For the same molecule, the Kb at human MCHR1 [3] is 31.3 nM.
The like results for `C(=C\c1ccc(-c2nnc(CSCCOc3ccccc3)o2)cc1)/CN1CCCC1` [drawing 38] were, in that order, 8.72 and 6 nM.

By pKi is commonly meant the Ki on a negative log10 scale, so that one unit is a factor of ten. High values mean a small Ki, low ones a large Ki. By Kb is commonly meant the affinity of an antagonist, worked out from how it opposes an agonist. Higher therefore signals a less potent antagonist.

Values taken from patent US7229987B2, “Multicyclic compounds for use as melanin concentrating hormone antagonists in the treatment of obesity and diabetes” (Eli Lilly and Company, priority 2002, dated 2007).
